Results from patent publication US9926304B2, “1-(arylmethyl)quinazoline-2,4(1H,3H)-diones as PARP inhibitors and the use thereof” (Impact Therapeutics, Inc., priority 2011, dated 2018).
Read-outs that look alike come from different tables or passages of the source.

Assays:
[1] = tested on: Human breast cancer cell line T47D; experiment: Cell based caspase-3 activity assay: potentiation of MMS induced apoptosis; details: T47D cells, 11.1 μg/ml MMS, 24 hours, intracellular caspase-3 activity, read-out: EC50 (nM), potentiation of the apoptosis inducing activity of MMS
Description: Determination of the synergistic potentiation effect of 1-(3-(4-(pyrimidin-2-yl)piperazine-1-carbonyl)benzyl)quinazoline-2,4(1H,3H)-dione and analogs on MMS induced apoptosis using a cell based caspase-3 activity assay
Human breast cancer cell line T47D was used to determine the potentiation effect of PARP inhibitors on the apoptosis inducing activity of DNA damaging anticancer drugs such as MMS. Intracellular caspase-3 activity was used to measure cell apoptosis. The dose response effect of MMS to induce intracellular caspase activity was carefully titrated and the concentration that only induces a minimal level of caspase activity was used to test the potentiation effect of PARP inhibitors. Briefly, T47D cells were grown in DMEM/F12 cell culture medium (Hyclone) supplemented with 0.2 U/ml insulin (Genview) and 10% FBS (Hyclone). A day before experiment, 20000 of T47D cells were seeded to each well of a 96-well cell culture plate and maintained at 37° C. and 5% CO2 in a cell culture incubator overnight. On the day of experiment, cell culture medium was removed. One hundred and eighty μl of fresh medium containing 11.1 μg/ml MMS was added to each well and followed by 20 μl medium containing 10 folds of the concentrations of experimental drugs or reference compounds (ADZ2281 and ABT-888). The serial dilutions of the compounds to be tested and the reference compounds were made in a 1:3 and 1:10 fashion in DMSO. The 10-fold compound solutions were made by mixing 10 μl DMSO serial dilution solutions with 90 μl fresh growth medium. Twenty four hours later, the cells in the 96-well plates were centrifuged at 1000 g for 5 min and the supernatants were removed. Fifty μl lysis buffer (10 mM Tris, pH7.5, 0.1M NaCl, 1 mM EDTA, 0.01% Triton X-100) was added to each well and the plates were shaked horizontally for 30 min at 4° C. After centrifugation at 1000 g at 4° C. for 10 min, 20 μl of supernatant was transferred from each well to a corresponding well in a 384-well black plate. Twenty μl of buffer (20 mM PIPES, pH7.4, 4 mM EDTA and 0.2% CHAPS) containing 20 μM fluorescent caspase-3 substrate ((Ac-DEVD)2-R110, AnaSpec Cat #60304-5) was added to each well afterwards. The plates were shaked to uniformly mix the wells and incubated at 37° C. for 3 h. The fluorescence intensity was measured using the following wavelength: ex: 496 nm, em: 520 nm using a fluorescence plate reader (Varioskan Flash, Thermo Fisher Scientific). The caspase-3 activity induced by the compounds was expressed as a relative fluorescence unit (RFU). The obtained fluorescence readings were analyzed using a commercial graphic software (GraphPad Prism 5) and plotted against the Log value of the compound concentrations. The EC50 values were obtained by fitting the data points with the equation of Y (fluorescence reading)=minimal fluorescence reading+(maximal fluorescence reading−minimal fluorescence reading)/(1+10^(Log EC50−Log C)), where C is the concentration of the testing compound.
The synergistic potentiation effect of compounds on MMS induced apoptosis in T47D cells is expressed as EC50 values and listed in Table 2.

[2] = tested on: SW620 human colorectal cancer cells; experiment: MTT based cell viability assay: potentiation of the growth inhibiting activity of MMS
Description: Briefly, SW620 human colorectal cancer cells were used to measure the cell growth inhibiting activity of DNA alkylating anticancer drug MMS. […] SW620 cells were grown and maintained in RPMI1640 (Gibco) medium supplemented with 10% FBS (Hyclone). In the first day of experiment, 4000 cells were seeded to each well of a 96-well cell culture plate and incubated at 37° C. and 5% CO2 in a cell culture incubator overnight. In the next day, the cell culture medium was removed. […] The serial dilutions of the reference compounds and the compounds to be tested were made with a 1:3 and 1:10 fashion in DMSO. The 10-fold concentrated solutions of these compounds were made by mixing 10 μl of the serial dilutions in DMSO with 90 μl fresh medium. The final concentration of DMSO in the medium was 1%. The cells were incubated at 37° C. in 5% CO2 cell culture incubator for additional 5 days (120 hours). Afterwards, the 96-well cell culture plate was taken out and 20 μl of MTT solution was added to each well and incubated at 37° C. for 4 h. The medium was removed and 100 μl DMSO was added to each well. The 96-well cell culture plates were shaked adequately for 10 min and read in a Varioskan Flash plate reader (Thermo Fisher Scientific) at 520 and 690 nm. The data were analyzed by Prism 5 software (GraphPad). The obtained 520 nm absorbance readings subtracting corresponding 690 nm reading were analyzed and plotted against the Log scale of the compound concentrations.

[3] = read-out: IC50 (nM), potentiation of the growth inhibiting activity of MMS, SW620 cells, 1.7 μg/ml MMS, 5 days (120 hours), MTT
[4] = Homo sapiens, SW-620, 120 h, read-out: IC50 (nM), potentiation of the growth inhibiting activity of MMS, SW620 cells, 1.7 μg/ml MMS, 5 days (120 hours), MTT

Compound | EC50 [1] [nM] | IC50 [2, 3] [nM] | EC50 ([1]; Homo sapiens, T47D, 24 h) [nM] | IC50 [2, 4] [nM]
1-(3-(4-(Cyclopentylcarbonyl)piperazine-1-carbonyl)-4-fluorobenzyl)-6-fluoroquinazoline-2,4(1H,3H)-dione [Example 148] | 2.3 | 2.1 | – | –
1-(3-(4-(Cyclopentylcarbonyl)piperazine-1-carbonyl)-6-fluorobenzyl)-6-fluoroquinazoline-2,4(1H,3H)-dione [Example 153] | 2 | 9.2 | – | –
1-(3-(4-Phenylpiperidine-1-carbonyl)benzyl)quinazoline-2,4(1H,3H)-dione [Example 18] | > 10000 | > 10000 | – | –
1-(3-(5-Bromopyrimidin-2-aminocarbamoyl)-4-fluorobenzyl)-5-fluoroquinazoline-2,4(1H,3H)-dione [Example 205] | > 10000 | > 10000 | – | –
C[C@]1(c2nc3c(C(N)=O)cccc3[nH]2)CCCN1 [ABT-888, reference compound] | 3490 | 2640 | – | –
COC(=O)c1cccc(Cn2c(=O)[nH]c(=O)c3ccccc32)c1 [Example 1, 1-(3-Methoxycarbonylbenzyl)quinazoline-2,4(1H,3H)-dione] | – | – | > 10000 | > 10000
O=C(O)c1cccc(Cn2c(=O)[nH]c(=O)c3ccccc32)c1 [Example 2, 1-(3-Carboxybenzyl)quinazoline-2,4(1H,3H)-dione] | – | – | > 10000 | > 10000
O=C(c1cccc(Cn2c(=O)[nH]c(=O)c3ccccc32)c1)N1CCN(C2CCCCC2)CC1 [Example 5, 1-(3-(4-Cyclohexylpiperazine-1-carbonyl)benzyl)quinazoline-2,4(1H,3H)-dione] | – | – | 450 | 5360
O=C(c1cccc(Cn2c(=O)[nH]c(=O)c3ccccc32)c1)N1CCN(c2ccc3nncn3n2)CC1 [Example 6, 1-(3-(4-([1,2,4]Triazolo[4,3-b]pyridazin-6-yl)piperazine-1-carbonyl)benzyl)quinazoline-2,4(1H,3H)-dione] | – | – | 2520 | 7030
CCN1CCN(C(=O)c2cccc(Cn3c(=O)[nH]c(=O)c4ccccc43)c2)CC1 [Example 7, 1-(3-(4-Ethylpiperazine-1-carbonyl)benzyl)quinazoline-2,4(1H,3H)-dione] | – | – | 2660 | 5270
O=C(c1ccc(F)cc1)N1CCN(C(=O)c2cccc(Cn3c(=O)[nH]c(=O)c4ccccc43)c2)CC1 [Example 9, 1-(3-(4-(4-Fluorobenzoyl)piperazine-1-carbonyl)benzyl)quinazoline-2,4(1H,3H)-dione] | – | – | 426 | 500
O=C(c1ccc(Cl)cc1)N1CCN(C(=O)c2cccc(Cn3c(=O)[nH]c(=O)c4ccccc43)c2)CC1 [Example 10, 1-(3-(4-(4-Chlorobenzoyl)piperazine-1-carbonyl)benzyl)quinazoline-2,4(1H,3H)-dione] | – | – | 400 | 439
COc1ccc(C(=O)N2CCN(C(=O)c3cccc(Cn4c(=O)[nH]c(=O)c5ccccc54)c3)CC2)cc1 [Example 12, 1-(3-(4-(4-Methoxybenzoyl)piperazine-1-carbonyl)benzyl)quinazoline-2,4(1H,3H)-dione] | – | – | 318 | 533
O=C(c1cccc(Cn2c(=O)[nH]c(=O)c3ccccc32)c1)N1CCN(C(=O)C2CCOCC2)CC1 [Example 13, 1-(3-(4-(Tetrahydro-2H-pyran-4-carbonyl)piperazine-1-carbonyl)benzyl)quinazoline-2,4(1H,3H)-dione] | – | – | 6600 | 727
CCS(=O)(=O)N1CCN(C(=O)c2cccc(Cn3c(=O)[nH]c(=O)c4ccccc43)c2)CC1 [Example 16, 1-(3-(4-(Ethylsulfonyl)piperazine-1-carbonyl)benzyl)quinazoline-2,4(1H,3H)-dione] | – | – | 9210 | 7260
CC(=O)N1CCN(C(=O)c2cccc(Cn3c(=O)[nH]c(=O)c4ccccc43)c2)CC1 [Example 17, 1-(3-(4-Acetylpiperazine-1-carbonyl)benzyl)quinazoline-2,4(1H,3H)-dione] | – | – | 5020 | > 10000
O=C(c1cccc(Cn2c(=O)[nH]c(=O)c3ccccc32)c1)N1CCN(c2ccccc2)CC1 [Example 19, 1-(3-(4-Phenylpiperazine-1-carbonyl)benzyl)quinazoline-2,4(1H,3H)-dione] | – | – | > 10000 | > 10000
COC(=O)c1cc(Cn2c(=O)[nH]c(=O)c3ccccc32)ccc1F [Example 21, 1-(4-Fluoro-3-methoxycarbonylbenzyl)quinazoline-2,4(1H,3H)-dione] | – | – | 5800 | > 10000
O=C(O)c1cc(Cn2c(=O)[nH]c(=O)c3ccccc32)ccc1F [Example 22, 1-(3-Carboxy-4-fluorobenzyl)quinazoline-2,4(1H,3H)-dione] | – | – | > 10000 | > 10000
O=C(c1cccc(Cn2c(=O)[nH]c(=O)c3ccccc32)c1)N1CCC(N2CCCCC2)CC1 [Example 28, 1-(3-(4-(Piperidin-1-yl)piperidine-1-carbonyl)benzyl)quinazoline-2,4(1H,3H)-dione] | – | – | 5890 | > 10000
O=C(c1cccc(Cn2c(=O)[nH]c(=O)c3ccccc32)c1)N1CCN(c2ccncc2)CC1 [Example 29, 1-(3-(4-(Pyridin-4-yl)piperazine-1-carbonyl)benzyl)quinazoline-2,4(1H,3H)-dione] | – | – | > 10000 | > 10000
O=C(c1cccc(Cn2c(=O)[nH]c(=O)c3ccccc32)c1)N1CCC(c2noc3cc(F)ccc23)CC1 [Example 31, 1-(3-(4-(6-Fluorobenzo[d]isoxazol-3-yl)piperidine-1-carbonyl)benzyl)quinazoline-2,4(1H,3H)-dione] | – | – | 112 | 2600
O=C(c1cccc(Cn2c(=O)[nH]c(=O)c3ccccc32)c1)N1CCN(C(=O)c2cccs2)CC1 [Example 32, 1-(3-(4-(Thiophene-2-carbonyl)piperazine-1-carbonyl)benzyl)quinazoline-2,4(1H,3H)-dione] | – | – | 96 | 106
O=C(c1cccc(Cn2c(=O)[nH]c(=O)c3ccccc32)c1)N1CCN(C(=O)c2ccco2)CC1 [Example 33, 1-(3-(4-(Furan-2-carbonyl)piperazine-1-carbonyl)benzyl)quinazoline-2,4(1H,3H)-dione] | – | – | 96 | 130
O=C(c1ccoc1)N1CCN(C(=O)c2cccc(Cn3c(=O)[nH]c(=O)c4ccccc43)c2)CC1 [Example 34, 1-(3-(4-(Furan-3-carbonyl)piperazine-1-carbonyl)benzyl)quinazoline-2,4(1H,3H)-dione] | – | – | 104 | 294
O=C(c1ccsc1)N1CCN(C(=O)c2cccc(Cn3c(=O)[nH]c(=O)c4ccccc43)c2)CC1 [Example 35, 1-(3-(4-(Thiophene-3-carbonyl)piperazine-1-carbonyl)benzyl)quinazoline-2,4(1H,3H)-dione] | – | – | 238 | 265
O=C(c1cc(Cn2c(=O)[nH]c(=O)c3cc(Cl)ccc32)ccc1F)N1CCN(C(=O)C2CC2)CC1 [Example 122, 6-Chloro-1-(3-(4-(cyclopropylcarbonyl)piperazine-1-carbonyl)-4-fluorobenzyl)quinazoline-2,4(1H,3H)-dione] | – | – | 8.4 | –
O=C(NC1CCCCC1)N1CCN(C(=O)c2cccc(Cn3c(=O)[nH]c(=O)c4ccccc43)c2)CC1 [Example 191, 1-(3-(4-(Cyclohexylcarbamoyl)piperazine-1-carbonyl)benzyl)quinazoline-2,4(1H,3H)-dione] | – | – | – | 192
